Data as given in patent publication US20260049071A1, “PROTEIN TYROSINE KINASE INHIBITOR AND MEDICAL USE THEREOF” (BEYANG THERAPEUTICS CO., LTD., priority 2022, published 2026).
Values after ≈ are worked out from the molar mass of the structure shown.

Experiments:
[1] = target: KDR (VEGFR2) (Homo sapiens (Human), UniProt P35968); assay: Kinase inhibition, Mobility Shift Assay (VEGFR2); format: biochemical
Outline: (§1)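 Mobility shift assay: each kinase preincubated 10 min at room temperature with compound, then reacted with FAM-labeled peptide, MgCl2 and ATP at 28° C. for varying times. Substrate-to-product conversion read on Caliper; % inhibition normalised to no-kinase and DMSO controls, and IC50 fitted.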

[2] = target: EGFR (Homo sapiens (Human), UniProt P00533); assay: Kinase inhibition, Mobility Shift Assay (EGFR); format: biochemical
Sequence of EGFR (P00533 25-1210): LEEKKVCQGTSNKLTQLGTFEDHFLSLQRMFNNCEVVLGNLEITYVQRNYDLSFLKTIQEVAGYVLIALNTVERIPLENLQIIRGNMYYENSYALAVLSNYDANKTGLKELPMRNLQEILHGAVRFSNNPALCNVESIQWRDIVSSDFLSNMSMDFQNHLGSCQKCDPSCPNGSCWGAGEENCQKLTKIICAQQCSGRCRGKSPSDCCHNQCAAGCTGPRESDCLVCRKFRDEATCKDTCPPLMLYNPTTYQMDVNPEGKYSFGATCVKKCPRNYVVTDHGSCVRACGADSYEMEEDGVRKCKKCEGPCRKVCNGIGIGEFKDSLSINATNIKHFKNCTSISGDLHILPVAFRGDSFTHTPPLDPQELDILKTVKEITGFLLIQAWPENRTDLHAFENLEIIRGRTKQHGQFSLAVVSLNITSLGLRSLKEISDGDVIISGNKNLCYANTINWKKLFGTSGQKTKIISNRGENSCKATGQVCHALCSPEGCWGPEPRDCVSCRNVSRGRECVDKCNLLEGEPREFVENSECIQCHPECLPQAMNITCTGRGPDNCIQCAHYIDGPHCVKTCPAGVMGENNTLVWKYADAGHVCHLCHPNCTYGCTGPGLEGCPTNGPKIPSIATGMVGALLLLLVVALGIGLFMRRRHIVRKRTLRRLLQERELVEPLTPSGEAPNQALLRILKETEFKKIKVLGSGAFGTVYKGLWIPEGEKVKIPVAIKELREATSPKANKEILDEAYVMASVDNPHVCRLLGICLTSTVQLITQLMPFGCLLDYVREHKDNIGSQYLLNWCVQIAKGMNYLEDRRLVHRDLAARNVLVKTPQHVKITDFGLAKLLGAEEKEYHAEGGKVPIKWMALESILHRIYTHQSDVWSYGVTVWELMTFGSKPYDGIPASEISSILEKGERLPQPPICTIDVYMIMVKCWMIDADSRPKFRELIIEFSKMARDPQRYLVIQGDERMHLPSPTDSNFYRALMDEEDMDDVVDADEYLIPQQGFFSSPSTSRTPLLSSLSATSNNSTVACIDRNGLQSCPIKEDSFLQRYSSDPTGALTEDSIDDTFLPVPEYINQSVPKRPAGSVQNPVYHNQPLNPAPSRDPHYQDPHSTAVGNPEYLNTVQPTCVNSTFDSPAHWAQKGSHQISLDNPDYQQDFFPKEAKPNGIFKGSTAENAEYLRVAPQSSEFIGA
Outline: as §1

[3] = target: FLT1 (VEGFR1) (Homo sapiens (Human), UniProt P17948); assay: Kinase inhibition, Mobility Shift Assay (VEGFR1); format: biochemical
Outline: as §1

[4] = target: FLT4 (VEGFR3) (Homo sapiens (Human), UniProt P35916); assay: Kinase inhibition, Mobility Shift Assay (VEGFR3); format: biochemical
Sequence of FLT4 (VEGFR3) (P35916 25-1363): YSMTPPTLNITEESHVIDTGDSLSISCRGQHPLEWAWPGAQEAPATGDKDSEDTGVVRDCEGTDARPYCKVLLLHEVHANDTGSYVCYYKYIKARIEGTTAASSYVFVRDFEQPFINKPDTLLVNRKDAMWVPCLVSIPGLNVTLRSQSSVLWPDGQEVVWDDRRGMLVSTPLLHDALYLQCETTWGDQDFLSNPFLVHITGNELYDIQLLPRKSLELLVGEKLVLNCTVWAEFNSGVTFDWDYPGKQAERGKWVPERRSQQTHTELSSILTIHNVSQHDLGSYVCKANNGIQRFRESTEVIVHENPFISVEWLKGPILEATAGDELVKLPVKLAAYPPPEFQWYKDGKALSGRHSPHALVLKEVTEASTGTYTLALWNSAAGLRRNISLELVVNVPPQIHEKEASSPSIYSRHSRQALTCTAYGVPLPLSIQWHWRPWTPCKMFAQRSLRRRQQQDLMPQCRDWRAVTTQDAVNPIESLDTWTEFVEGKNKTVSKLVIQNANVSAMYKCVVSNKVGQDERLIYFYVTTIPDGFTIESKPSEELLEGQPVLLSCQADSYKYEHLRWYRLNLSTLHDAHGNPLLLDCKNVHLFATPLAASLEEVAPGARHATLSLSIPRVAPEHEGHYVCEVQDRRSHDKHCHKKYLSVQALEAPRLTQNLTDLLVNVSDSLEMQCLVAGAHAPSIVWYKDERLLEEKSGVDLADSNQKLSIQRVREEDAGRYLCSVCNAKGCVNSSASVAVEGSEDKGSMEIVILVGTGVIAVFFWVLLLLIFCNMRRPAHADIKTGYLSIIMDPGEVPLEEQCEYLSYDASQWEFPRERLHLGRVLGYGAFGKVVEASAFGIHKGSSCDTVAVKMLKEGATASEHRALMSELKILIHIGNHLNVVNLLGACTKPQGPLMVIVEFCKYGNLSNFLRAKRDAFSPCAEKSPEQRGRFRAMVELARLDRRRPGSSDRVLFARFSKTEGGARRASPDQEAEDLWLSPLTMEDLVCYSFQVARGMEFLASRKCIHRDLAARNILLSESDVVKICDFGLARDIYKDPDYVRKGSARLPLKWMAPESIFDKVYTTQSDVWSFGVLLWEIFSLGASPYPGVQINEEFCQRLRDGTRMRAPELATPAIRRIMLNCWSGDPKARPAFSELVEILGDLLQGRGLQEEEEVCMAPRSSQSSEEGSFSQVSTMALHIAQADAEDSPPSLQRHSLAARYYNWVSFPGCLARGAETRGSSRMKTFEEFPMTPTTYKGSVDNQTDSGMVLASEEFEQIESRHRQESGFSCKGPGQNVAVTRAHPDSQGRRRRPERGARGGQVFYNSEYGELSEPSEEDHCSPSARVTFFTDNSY
Outline: as §1

[5] = target: VEGFR2 autophosphorylation (pVEGFR2) in HUVEC cells (Homo sapiens (Human), UniProt P35968); assay: Inhibition of VEGF-induced VEGFR2 autophosphorylation in HUVEC cells (ELISA); format: cell-based; settings: 50 ng/ml human VEGF, compound 1 h
Sequence of VEGFR2 autophosphorylation (pVEGFR2) in HUVEC cells (P35968 20-1356): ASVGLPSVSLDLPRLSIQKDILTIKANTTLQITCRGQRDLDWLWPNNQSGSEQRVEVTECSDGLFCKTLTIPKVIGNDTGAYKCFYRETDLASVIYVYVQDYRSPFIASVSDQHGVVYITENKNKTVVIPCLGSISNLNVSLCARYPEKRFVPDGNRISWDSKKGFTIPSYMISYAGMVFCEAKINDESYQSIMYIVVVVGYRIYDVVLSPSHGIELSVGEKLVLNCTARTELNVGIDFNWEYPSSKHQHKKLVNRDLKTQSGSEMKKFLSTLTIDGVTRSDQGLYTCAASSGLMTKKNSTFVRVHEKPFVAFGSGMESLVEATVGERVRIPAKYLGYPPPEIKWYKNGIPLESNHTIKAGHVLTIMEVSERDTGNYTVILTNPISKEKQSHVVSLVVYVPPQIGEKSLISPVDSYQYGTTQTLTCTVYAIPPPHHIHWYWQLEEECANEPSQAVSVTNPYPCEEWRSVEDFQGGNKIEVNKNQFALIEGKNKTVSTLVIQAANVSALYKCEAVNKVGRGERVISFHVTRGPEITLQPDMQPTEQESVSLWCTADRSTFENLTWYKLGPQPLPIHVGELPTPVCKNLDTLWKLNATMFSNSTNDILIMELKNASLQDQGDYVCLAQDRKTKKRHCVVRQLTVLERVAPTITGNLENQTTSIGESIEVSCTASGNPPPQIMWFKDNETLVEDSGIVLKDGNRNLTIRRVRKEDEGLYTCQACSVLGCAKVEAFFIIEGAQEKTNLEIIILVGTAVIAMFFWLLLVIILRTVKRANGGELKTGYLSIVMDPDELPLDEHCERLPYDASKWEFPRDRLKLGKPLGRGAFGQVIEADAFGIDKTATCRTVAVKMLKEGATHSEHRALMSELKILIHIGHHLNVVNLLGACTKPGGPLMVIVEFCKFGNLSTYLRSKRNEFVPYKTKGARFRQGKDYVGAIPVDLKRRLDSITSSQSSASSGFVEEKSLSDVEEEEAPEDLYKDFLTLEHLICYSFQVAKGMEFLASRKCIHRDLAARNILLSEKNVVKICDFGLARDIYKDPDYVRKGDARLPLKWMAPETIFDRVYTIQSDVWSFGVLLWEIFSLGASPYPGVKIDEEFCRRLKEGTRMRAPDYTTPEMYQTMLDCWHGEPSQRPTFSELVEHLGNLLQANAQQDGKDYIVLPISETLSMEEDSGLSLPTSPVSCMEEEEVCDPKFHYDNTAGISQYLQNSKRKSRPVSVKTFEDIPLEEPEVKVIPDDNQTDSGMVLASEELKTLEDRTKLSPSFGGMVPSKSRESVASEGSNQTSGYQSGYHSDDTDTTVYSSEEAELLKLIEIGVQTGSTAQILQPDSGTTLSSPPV
Text: Vascular endothelial growth factor receptor 2 (VEGFR2) is a primary receptor for VEGF-induced endothelial cell signaling. After ligand binding, VEGFR2 is autophosphorylated and activated. The main function of signaling from VEGFR2 is to induce vascularization during development and after tissue injury, and to bypass blocked blood vessels. Pathologically, VEGF and VEGFR2 are involved in tumor angiogenesis and vascular leakage. They are considered to be main participants in many different cancers and ocular diseases that accompany pathological neovascularization. This assay measured the ability of the compounds to inhibit VEGF-induced VEGFR2 autophosphorylation (pVEGFR2) in HUVEC cells by using ELISA.
Culture cells in a cell culture flask to reach a fusion degree of 60%-80% before cell inoculation. Dilute the cell suspension to […] with a pre-warmed complete medium. Add 80 μL of the cell suspension to all wells of a 96-well cell plate (Corning-3599); and incubate the plate overnight at 37° C. in the presence of 5% CO2. Dissolve the compound powder to 10 mM with DMSO and store it in a nitrogen cabinet. Compound dilution plate: Add a reference compound Ponatinib or a compound to be tested to a 96 V-well plate (Axygen-WIpp 2280) at concentrations achieved as follows: performing 3-fold gradient dilution starting from 5 mM (5 μL of 10 mM compound solution plus 5 μL of DMSO) for a total of 8 concentration points. […] Transfer 20 μL of the diluted compound from the intermediate plate to a cell plate. Then, incubate the cell plate for 1 h at 37° C. in the presence of 5% CO2. After the compound was treated for 1 h, add 25 μL of 250 ng/ml human VEGF at a final concentration of 50 ng/ml to a 96-well plate; and incubate the plate for 5 min at 37° C. in the presence of 5% CO2, centrifuge the plate for 10 min at 3,000 rpm, remove the medium and wash the cells once with 300 μL of pre-chilled DPBS per well. Then, centrifuge the plate for 10 min at 4,000 rpm, remove DPBS, and add 110 μL of pre-chilled 1× cell lysis buffer per well to the 96-well plate. Shake the plate for 40 min at 4° C. Then, freeze the plate in a refrigerator at −80° C. On the next day, remove the plate from the refrigerator at −80° C., thaw the plate, centrifuge the plate for 10 min at 3500 rpm, and add 100 μL of the supernatant per well to an ELISA plate. Seal the plate and incubate it for 2 h at 37° C. Wash the wells 4 times with 1× wash buffer. Add 100 μL of recombinant detection antibody per well. Seal the plate, incubate the plate for 1 h at 37° C., and repeat the step of plate washing. Add 100 μL of secondary antibody per well. Seal the plate, incubate the plate for 30 min at 37° C., and repeat the step of plate washing. Add 100 μL of TMB (protected from light) per well. Seal the plate, incubate the plate for 30 min at 37° C., and add 100 μL of the stop solution per well. Gently shake for 30 sec, measure the absorbance with a SpectraMax® 340 PC 384 Absorbance Microplate Reader within 30 min, and read an optical density value at 450 nm. Conduct data analysis using XL Fit software:
Conduct curve fitting using the 4 Parameter Logistic Model or Sigmoidal Dose-Response Model:
X indicating the log value of compound concentration, Y indicating the inhibition ratio (% inhibition), Top indicating the readout of the negative control wells, and bottom indicating the readout of the positive control well.

[6] = tested on: melanin; assay: Binding capacity of compounds to melanin; format: in vitro ADME; settings: Sepia officinalis (cuttlefish), melanin suspension (1 mg/mL); 1 mg/mL melanin suspension in PBS pH 7.4, 2 μM compound, 2 h at 37° C.; read-out: Fu % (percentage of free drug, not bound to melanin)
Outline: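 Compound at 2 μM final incubated with 1 mg/mL Sepia melanin suspension in PBS pH 7.4 for 2 h at 37 °C with shaking; blank control in PBS with 0.1% BSA. Supernatant concentrations measured by LC-MS/MS; bound fraction from melanin versus control samples, free fraction as 100 − Fb.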

[7] = Thermodynamic solubility assay; settings: aqueous buffer, pH 2, aqueous buffer, thermodynamic from solid
Method: After sonication for 10 min, fix them on a shaker and shaking for 8 h at room temperature. After shaking, sonicate for 10 min and centrifuge for 15 min at 13,000 rpm. Pipette 0.1 mL of supernatant into a new tube, shake and rinse it with 5 mL, and discard the liquid. Transfer 0.5 mL of the supernatant again to a new tube, centrifuge it for 15 min at 13,000 rpm, then collect the supernatant (if necessary, dilute with water) and analyze it by LC-MS.
The sample concentrations at 3-5 points are subjected to fitting and reticle for quantification.

Sequence of KDR (VEGFR2) (P35968 790-1356): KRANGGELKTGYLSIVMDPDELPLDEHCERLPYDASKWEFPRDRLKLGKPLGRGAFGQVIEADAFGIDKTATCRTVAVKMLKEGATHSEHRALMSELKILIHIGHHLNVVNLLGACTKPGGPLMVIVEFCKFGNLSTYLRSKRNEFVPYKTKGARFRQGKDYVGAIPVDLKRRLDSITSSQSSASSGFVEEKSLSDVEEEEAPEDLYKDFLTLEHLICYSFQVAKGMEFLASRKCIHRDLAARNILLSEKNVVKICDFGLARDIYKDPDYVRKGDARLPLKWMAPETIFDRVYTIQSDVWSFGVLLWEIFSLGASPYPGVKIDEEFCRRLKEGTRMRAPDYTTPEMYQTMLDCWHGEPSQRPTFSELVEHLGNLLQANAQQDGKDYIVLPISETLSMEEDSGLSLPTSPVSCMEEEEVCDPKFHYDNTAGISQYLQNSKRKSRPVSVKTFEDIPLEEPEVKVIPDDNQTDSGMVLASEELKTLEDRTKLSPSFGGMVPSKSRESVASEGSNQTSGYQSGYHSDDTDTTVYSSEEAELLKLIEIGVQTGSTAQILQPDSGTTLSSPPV

| SMILES | IC50 [1] [nM] | IC50 [2] [nM] | IC50 [3] [nM] | IC50 [4] [nM] | IC50 [5] [nM] | fraction unbound at 2 h, 2 μM [6] | solubility at 8 h [7] [µg/mL] |
| --- | --- | --- | --- | --- | --- | --- | --- |
| CNC(=O)c1ccccc1Sc1ccc2c(/C=C/c3ccc(OCCN4CCOCC4)cn3)n[nH]c2c1 [Compound I-3, N-methyl-2-({3-[(E)-2-{5-[2-(morpholin-4-yl)ethoxy]pyridin-2-yl}vinyl]-1H-indazol-6-yl}thio)benzamide] | ≤ 1 | 6000 to 60000 | ≤ 1 | ≤ 1 | ≤ 1 | 0.01 to 0.05 | – |
| CNC(=O)c1ccccc1Sc1ccc2c(/C=C/c3cc(OCCN4CCCC4)ccn3)n[nH]c2c1 [Compound I-20, N-methyl-2-({3-[(E)-2-{4-[2-(pyrrolidin-1-yl)ethoxy]pyridin-2-yl}vinyl]-1H-indazol-6-yl}thio)benzamide] | 10 to 100 | 6000 to 60000 | 10 to 100 | 10 to 100 | 1 to 5 | 0.01 to 0.05 | – |
| CN(C)Cc1ccc(/C=C/c2n[nH]c3cc(Sc4ccccc4C(=O)NC4CC4)ccc23)nc1 [Compound I-40, N-cyclopropyl-2-({3-[(E)-2-{5-[(dimethylamino)methyl]pyridin-2-yl}vinyl]-1H-indazol-6-yl}thio)benzamide] | ≤ 1 | 6000 to 60000 | ≤ 1 | 1 to 10 | ≤ 1 | 0.01 to 0.05 | – |
| CCN(CC)Cc1ccc(/C=C/c2n[nH]c3cc(Sc4ccc(F)cc4C(=O)NC4CC4)ccc23)nc1 [Compound I-84, N-cyclopropyl-2-({3-[(E)-2-{5-[(diethylamino)methyl]pyridin-2-yl}vinyl]-1H-indazol-6-yl}thio)-5-fluorobenzamide] | 1 to 10 | 6000 to 60000 | – | – | ≤ 1 | > 0.05 | – |
| CNC(=O)c1ccccc1Sc1ccc2c(/C=C/c3cnn(CCN4CCCC4)c3)n[nH]c2c1 [Compound I-9, N-methyl-2-({3-[(E)-2-{1-[2-(pyrrolidin-1-yl)ethyl]-1H-pyrazole-4-yl}vinyl]-1H-indazol-6-yl}thio)benzamide] | 1 to 10 | 6000 to 60000 | 1 to 10 | 1 to 10 | ≤ 1 | 0.01 to 0.05 | – |
| O=C(NC1CC1)c1ccccc1Sc1ccc2c(/C=C/c3cnn(CCCN4CCCC4)c3)n[nH]c2c1 [Compound I-43, N-cyclopropyl-2-({3-[(E)-2-{1-[3-(pyrrolidin-1-yl)propyl]-1H-pyrazol-4-yl}vinyl]-1H-indazol-6-yl}thio)benzamide] | ≤ 1 | 6000 to 60000 | – | – | ≤ 1 | 0.01 to 0.05 | – |
| CN1CCC(CCOc2ccc(/C=C/c3n[nH]c4cc(Sc5ccccc5C(=O)NC5CC5)ccc34)nc2)CC1 [Compound I-42, N-cyclopropyl-2-({3-[(E)-2-{5-[2-(1-methylpiperidin-4-yl)ethoxy]pyridin-2-yl}vinyl]-1H-indazol-6-yl}thio)benzamide] | ≤ 1 | > 60000 | – | – | ≤ 1 | 0.01 to 0.05 | – |
| CCN(CC)Cc1ccc(/C=C/c2n[nH]c3cc(Sc4ccccc4C(=O)NC)ccc23)nc1 [Compound I-90, 2-({3-[(E)-2-{5-[(diethylamino)methyl]pyridin-2-yl}vinyl]-1H-indazol-6-yl}thio)-N-methylbenzamide] | 1 to 10 | 6000 to 60000 | – | – | ≤ 1 | 0.01 to 0.05 | – |
| CCNC(=O)c1cc(F)ccc1Sc1ccc2c(/C=C/c3ccc(CN4CCCC4)cn3)n[nH]c2c1 [Compound I-97, N-ethyl-5-fluoro-2-({3-[(E)-2-{5-[(pyrrolidin-1-yl)methyl]pyridin-2-yl}vinyl]-1H-indazol-6-yl}thio)benzamide] | 1 to 10 | 6000 to 60000 | 1 to 10 | 1 to 10 | ≤ 1 | 0.01 to 0.05 | – |
| O=C(NC1CC1)c1cccc(F)c1Sc1ccc2c(/C=C/c3ccc(CN4CCCC4)cn3)n[nH]c2c1 [Compound I-67] | 1 to 10 | 6000 to 60000 | – | – | ≤ 1 | > 0.05 | – |
| CNC(=O)c1ccccc1Sc1ccc2c(/C=C/c3ccc(OCCN4CCCC4)cn3)n[nH]c2c1 [Compound I-6, N-methyl-2-({3-[(E)-2-{5-[2-(pyrrolidin-1-yl)ethoxy]pyridin-2-yl}vinyl]-1H-indazol-6-yl}thio)benzamide] | 1 to 10 | 6000 to 60000 | ≤ 1 | 1 to 10 | 1 to 5 | 0.01 to 0.05 | – |
| CNC(=O)c1cc(F)ccc1Sc1ccc2c(/C=C/c3ccc(OCCN4CCCC4)cn3)n[nH]c2c1 [Compound I-34, 5-fluoro-N-methyl-2-({3-[(E)-2-{5-[2-(pyrrolidin-1-yl)ethoxy]pyridin-2-yl}vinyl]-1H-indazol-6-yl}thio)benzamide] | 1 to 10 | 6000 to 60000 | 1 to 10 | 1 to 10 | ≤ 1 | > 0.05 | – |
| CNC(=O)c1cc(F)ccc1Sc1ccc2c(/C=C/c3cnn(CCCN4CCCC4)c3)n[nH]c2c1 [Compound I-106] | 1 to 10 | 6000 to 60000 | – | – | – | > 0.05 | 1580 (≈ 3.13 mM) |
| O=C(NC1CC1)c1ccccc1Sc1ccc2c(/C=C/c3cnn(CCN4CCCC4)c3)n[nH]c2c1 [Compound I-61, N-cyclopropyl-2-({3-[(E)-2-{1-[2-(pyrrolidin-1-yl)ethyl]-1H-pyrazol-4-yl}vinyl]-1H-indazol-6-yl}thio)benzamide] | 1 to 10 | 6000 to 60000 | – | – | ≤ 1 | 0.01 to 0.05 | – |
| O=C(NC1CC1)c1ccccc1Sc1ccc2c(/C=C/c3ccc(CCCN4CCCC4)cn3)n[nH]c2c1 [Compound I-59, N-cyclopropyl-2-({3-[(E)-2-{5-[3-(pyrrolidin-1-yl)propyl]pyridin-2-yl}vinyl]-1H-indazol-6-yl}thio)benzamide] | ≤ 1 | 6000 to 60000 | – | – | ≤ 1 | 0.01 to 0.05 | – |
| CCNC(=O)c1cc(F)ccc1Sc1ccc2c(/C=C/c3cnn(CCCN4CCCC4)c3)n[nH]c2c1 [Compound I-104, N-ethyl-5-fluoro-2-({3-[(E)-2-{1-[3-(pyrrolidin-1-yl)propyl]-1H-pyrazol-4-yl}vinyl]-1H-indazol-6-yl}thio)benzamide] | ≤ 1 | > 60000 | – | – | ≤ 1 | > 0.05 | – |
| CCN(CC)CCc1ccc(/C=C/c2n[nH]c3cc(Sc4ccc(F)cc4C(=O)NC4CC4)ccc23)nc1 [Compound I-109, N-cyclopropyl-2-({3-[(E)-2-{5-[2-(diethylamino)ethyl]pyridin-2-yl}vinyl]-1H-indazol-6-yl}thio)-5-fluorobenzamide] | ≤ 1 | 6000 to 60000 | – | – | 1 to 5 | > 0.05 | – |
